Reference: paper PMC11292009, “Mapping protein binding sites by photoreactive fragment pharmacophores” (Communications Chemistry, 2024)

How the values were obtained:
Format in all cases: binding
[1] = system: carbonic anhydrase II (CA); experiment: Intact protein MS photoaffinity labeling screen, carbonic anhydrase; conditions: intact protein MS after 10 min irradiation
How it was run: (§1)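 Plate format, one fragment/well; 15 min incubation with protein for non-covalent complex formation; direct intact-protein MS read from plate; labeling % from adduct mass additions.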

[2] = system: T1, BRD4-BD1; experiment: Intact MS photoaffinity labeling screen, BRD4-BD1 (302 nm, LCMS-TOF); conditions: for MS labeling percentage, BRD4: BRD4-BD1, 302 nm 10 min
T1 construct: screened the PhP library against the first bromodomain of BRD4 (BRD4-BD1); purchased GSK/GenScript
How it was run: (§2)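 Labeling detected as mass additions in deconvoluted intact-protein LCMS-TOF spectra. Protein at 1 μM in PBS was first mixed with one fragment per well on ice for 15 min, followed by 10 min UV exposure at 302 nm.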

[3] = system: T2, KRas^G12D; experiment: Intact MS photoaffinity labeling screen, KRas G12D (302 nm, LCMS-TOF); conditions: for MS labeling percentage, KRas: KRas G12D, 302 nm 10 min
T2 construct: purchased GSK/GenScript
How it was run: as §2

[4] = system: lysozyme (Lyo); experiment: Intact protein MS photoaffinity labeling screen, lysozyme; conditions: intact protein MS after 10 min irradiation
How it was run: as §1

[5] = system: myoglobin (Myo); experiment: Intact protein MS photoaffinity labeling screen, myoglobin; conditions: intact protein MS after 10 min irradiation
How it was run: as §1

[6] = system: T3, STAT5B-NTD; experiment: Intact MS photoaffinity labeling screen, STAT5B-NTD (365 nm, UHPLC-MS); conditions: for MS labeling percentage, STAT5B: STAT5B-NTD, 365 nm 10 min, no photocatalyst;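 as to MS labeling percentage, STAT5B: 0.17 µL of 100 mM DMSO fragment stock added to the protein sample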
T3 construct: His-SUMO (N, cleaved yes); made in house; host or cells: E. coli BL21 RILP
How it was run: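 Intact-protein labeling detected by UHPLC-MS in positive ion mode over m/z 100–2000. Samples were first photo-crosslinked at 365 nm for 10 min at 4 °C. Before irradiation, 7 µM STAT5B in PBS pH 7.4 was pre-incubated with probe for 1 h in the dark at room temperature.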

[7] = system: T3, STAT5B-NTD; experiment: Intact MS labeling screen, STAT5B-NTD conjugated with photocatalyst Ir-G2-PEG3-COOH (450 nm); conditions: 450 nm 10 min;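 also: 0.14 µL of 100 mM DMSO fragment stock added to the conjugate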
How it was run: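 Ir-G2-PEG3-COOH photocatalyst (10 eq) activated 30 min with EDC/NHS/BOP, then conjugated to STAT5B-NTD (7 µM) overnight at RT or 1 h at 37 °C in dark. PhP added, 1 h dark, then 450 nm irradiation 10 min at 4 °C; labeling read by intact LC-MS, positive ion mode, m/z 100–2000.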

[8] = hit flag 1/0, sheet PhP, photoaffinity labeling screen
[9] = sheet PhP, experimental hit status flag given as 0 or 1

SMILES	MS labeling percentage, CA [1]	MS labeling percentage, BRD4 [2]	BRD4-BD1 (experimental hit status) [2, 8]	MS labeling percentage, KRas [3]	KRAS-G12D (experimental hit status) [3, 8]	MS labeling percentage, Lyo [4]	MS labeling percentage, Myo [5]	MS labeling percentage, STAT5B [6]	STAT5B-NTD (experimental hit status) [6, 8]	MS labeling percentage, STAT5B+photocat [7]	BRD4-BD1 (experimental hit status) [2, 9]	KRAS-G12D (experimental hit status) [3, 9]	STAT5B-NTD (experimental hit status) [6, 9]
CC1(CCC(=O)Nc2sc3c(c2C(N)=O)CCC(C(C)(C)C)C3)N=N1 (centres unmarked) [PhP049, CC(C)(C)C(CC1)Cc(c12)sc(c2C(=O)N)NC(=O)CCC3(C)N=N3]	0.2%	0%	0	0.1%	0	0%	0.1%	1%	0	2%			
CC1(CCC(=O)NCCCn2ccnc2)N=N1 [PhP050, N1=NC1(C)CCC(=O)NCCCn2ccnc2]	0.3%	0.4%	0	0.6%	0	0%	0.2%	1%	0	0.4%			
CC1(CCC(=O)NCc2ccc(-c3cncnc3)cc2)N=N1 [PhP052, N1=NC1(C)CCC(=O)NCc2ccc(cc2)-c3cncnc3]	1.2%	1.5%	0	1.3%	0	0%	1.3%	1%	0	11.4%			
CC1(CCC(=O)NCCCN2CCN(C(=O)OC(C)(C)C)CC2)N=N1 [PhP056, CC(C)(C)OC(=O)N1CCN(CC1)CCCNC(=O)CCC2(C)N=N2]	0.3%	0.2%	0	0%	0	0%	0%	0%	0	1.2%			
CC1(CCC(=O)NCc2cccc(C(N)=O)c2)N=N1 [PhP059, N1=NC1(C)CCC(=O)NCc2cccc(c2)C(=O)N]	0.6%	0.7%		0.8%		0%	0.7%	1%		0.3%	0	0	0
Cc1n[nH]c(C)c1CCNC(=O)CCC1(C)N=N1 [PhP061, Cc1n[nH]c(C)c1CCNC(=O)CCC2(C)N=N2]	0.2%	0.2%		0.1%		0%	0.2%	1%		0%	0	0	0

Continued, in another order:

MS labeling percentage, CA [1]	SMILES	MS labeling percentage, BRD4 [2]	BRD4-BD1 (experimental hit status) [2, 8]	MS labeling percentage, KRas [3]	KRAS-G12D (experimental hit status) [3, 8]	MS labeling percentage, Lyo [4]	MS labeling percentage, Myo [5]	MS labeling percentage, STAT5B [6]	STAT5B-NTD (experimental hit status) [6, 8]	MS labeling percentage, STAT5B+photocat [7]	BRD4-BD1 (experimental hit status) [2, 9]	KRAS-G12D (experimental hit status) [3, 9]	STAT5B-NTD (experimental hit status) [6, 9]
0.6%	CC1(CCC(=O)NC2CCc3nccn3C2)N=N1 (centres unmarked) [PhP047, N1=NC1(C)CCC(=O)NC(CC2)Cn(c23)ccn3]	0.5%	0	0.1%	0	0%	0%	0%	0	2.1%			
1%	CC1(CCC(=O)NCCSCc2ccccc2)N=N1 [PhP051, N1=NC1(C)CCC(=O)NCCSCc2ccccc2]	0.2%	0	0%	0	0%	0.1%	0%	0	1%			
0%	CC1(CCC(=O)Nc2ccc(N3CCCCC3)cc2C(N)=O)N=N1 [PhP054, N1=NC1(C)CCC(=O)Nc2ccc(cc2C(=O)N)N3CCCCC3]	0.6%	0	0%	0	0%	0%	2.9%	0	9.8%			
0%	CN(C)Cc1nc2ccc(NC(=O)CCC3(C)N=N3)cc2o1 [PhP055, CN(C)Cc(n1)oc(c12)cc(cc2)NC(=O)CCC3(C)N=N3]	0.7%	0	0.3%	0	0%	0%	0%	0	0.8%			
0.4%	CC1(CCC(=O)NCc2c(O)ccc3ccccc23)N=N1 [PhP057, N1=NC1(C)CCC(=O)NCc(c(O)cc2)c(c23)cccc3]	1.6%	0	1.1%	0	2.2%	0.7%	0%	0	3.4%			
0%	CC1(CCC(=O)N[C@@H](Cc2ccc(O)cc2)C(N)=O)N=N1 [PhP058, N1=NC1(C)CCC(=O)N[C@H](C(=O)N)Cc2ccc(O)cc2]	0.4%		0%		1.2%	0.1%	1%		0.5%	0	0	0
2.3%	COc1ccc(OC)c(C(C)NC(=O)CCC2(C)N=N2)c1 (centres unmarked) [PhP062, COc1ccc(OC)c(c1)C(C)NC(=O)CCC2(C)N=N2]	7.9%		63.2%		1%	1.1%	2%		1.9%	0	0	0
0.3%	Cn1cnnc1CCNC(=O)CCC1(C)N=N1 [PhP063, Cn1cnnc1CCNC(=O)CCC2(C)N=N2]	49.7%		0.8%		0%	0.3%	0%		0.4%	0	0	0
